Data taken from the supplement of paper PMC11424490.

Columns and labels:
NCI-H2122 [1] = experiment: combination cScore with adagrasib (Bliss gap around IC50) (%PoC); higher = stronger additive effect
Method: (§1)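 Combination screen of 179 inhibitors with the KRAS G12C inhibitor adagrasib (MRTX849) in dose matrices, CellTiter-Glo readout in NCI-H2122 (72 h), SW837 (144 h) and NCI-H358 cells. The cScore is the mean Bliss-independence gap (expected minus observed viability, in %PoC) over a 3x3 field around the IC50s of both drugs. Positive means additive, and >~10 is stated as clear additive.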

SW837 [2] = experiment: as above
Method: as §1

NCI-H2122 [3] = experiment: combination cScore with sotorasib (Bliss gap around IC50) (%PoC); higher = stronger additive effect
Method: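 Combination screen of 179 inhibitors with the KRAS G12C inhibitor sotorasib (AMG510) in dose matrices, CellTiter-Glo readout in NCI-H2122 (72 h), SW837 (144 h) and NCI-H358 cells. The cScore is the mean Bliss-independence gap (expected minus observed viability, in %PoC) over a 3x3 field around the IC50s of both drugs. Positive means additive, and >~10 is stated as clear additive.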

NCI-H2122 [4] = experiment: fitted bottom plateau of viability curve, % of DMSO control; higher = less maximal inhibition; extreme values may be limits of the assay
Method: (§2)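 CellTiter-Glo proliferation assay in KRAS G12C mutant NCI-H2122 (72 h), SW837 (144 h) and NCI-H358 cells in 384-well plates. Monotherapy dose response was fitted with a four-parameter curve after normalisation to DMSO controls (% of control, PoC). IC50 is the relative IC50, averaged over replicates. Bottom is the fitted lower plateau in %PoC; Max.Conc. is the top dose tested.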

SW837 [5] = experiment: as above
Method: as §2

Compound | combination cScore with adagrasib (NCI-H2122 [1]) | combination cScore with adagrasib (SW837 [2]) | combination cScore with sotorasib (NCI-H2122 [3]) | fitted bottom plateau of viability curve (NCI-H2122 [4]) | fitted bottom plateau of viability curve (SW837 [5])
COc1cc(Nc2ncc3c(n2)-c2ccc(Cl)cc2C(c2c(F)cccc2OC)=NC3)ccc1C(=O)O [MLN8237] + C=C(F)C(=O)N1CCN(c2nc(OC[C@@H]3CCCN3C)nc3c2CCN(c2cccc4cccc(Cl)c24)C3)C[C@@H]1CC#N [adagrasib] | -0.97 | 4.72 | – | – | –
Cc1cn(CCN2CCN(c3ccccc3-c3cc(C#N)cc(C(=O)NCCCN4CCCC4)c3)CC2)c2ccccc12 [LLY-507] + C=C(F)C(=O)N1CCN(c2nc(OC[C@@H]3CCCN3C)nc3c2CCN(c2cccc4cccc(Cl)c24)C3)C[C@@H]1CC#N [adagrasib] | 12.6 | 20.3 | – | – | –
CO[C@H]1CC[C@H](n2c([C@@H]3CCCC(=O)N3c3ccc(F)c(F)c3)nc3cc(-c4c(C)noc4C)ccc32)CC1 [CCS1477] + C=C(F)C(=O)N1CCN(c2nc(OC[C@@H]3CCCN3C)nc3c2CCN(c2cccc4cccc(Cl)c24)C3)C[C@@H]1CC#N [adagrasib] | -1.66 | 7.35 | – | – | –
CN1CCN(c2ccc(-c3cccc(CN4CCOCC4)c3)cc2NC(=O)c2c[nH]c(=O)cc2C(F)(F)F)CC1 [OICR-9429] + C=C(F)C(=O)N1CCN(c2nc(OC[C@@H]3CCCN3C)nc3c2CCN(c2cccc4cccc(Cl)c24)C3)C[C@@H]1CC#N [adagrasib] | -2.61 | 8.92 | – | – | –
CO[C@H]1/C=C/C[C@H](C)[C@@H](C)S(=O)(=O)NC(=O)c2ccc3c(c2)N(C[C@@H]2CC[C@H]21)C[C@@]1(CCCc2cc(Cl)ccc21)CO3 [AMG176] + C=C(F)C(=O)N1CCN(c2nc(OC[C@@H]3CCCN3C)nc3c2CCN(c2cccc4cccc(Cl)c24)C3)C[C@@H]1CC#N [adagrasib] | 5.81 | -0.8 | – | – | –
O=c1cc(N2CCOCC2)oc2c(-c3cccc4c3sc3ccccc34)cccc12 [NU-7441] + C=C(F)C(=O)N1CCN(c2nc(OC[C@@H]3CCCN3C)nc3c2CCN(c2cccc4cccc(Cl)c24)C3)C[C@@H]1CC#N [adagrasib] | 6.81 | 11.6 | – | – | –
CCCCCOC(=O)Nc1nc(=O)n([C@@H]2O[C@H](C)[C@@H](O)[C@H]2O)cc1F [Capecitabin] + C=C(F)C(=O)N1CCN(c2nc(OC[C@@H]3CCCN3C)nc3c2CCN(c2cccc4cccc(Cl)c24)C3)C[C@@H]1CC#N [adagrasib] | -6.31 | 2.14 | – | – | –
N[C@H]1CC[C@H](N[C@@H]2C[C@H]2c2ccccc2)CC1 [ORY-1001] + C=CC(=O)N1CCN(c2nc(=O)n(-c3c(C)ccnc3C(C)C)c3nc(-c4c(O)cccc4F)c(F)cc23)[C@@H](C)C1 [sotorasib] | – | – | 8.65 | – | –
CCCS(=O)(=O)Nc1ccc(F)c(C(=O)c2c[nH]c3ncc(Cl)cc23)c1F [PLX4720] + C=C(F)C(=O)N1CCN(c2nc(OC[C@@H]3CCCN3C)nc3c2CCN(c2cccc4cccc(Cl)c24)C3)C[C@@H]1CC#N [adagrasib] | – | -5.68 | – | – | –
Cc1[nH]c2ccccc2c1CCNCc1ccc(/C=C/C(=O)NO)cc1 [Panobinostat] + C=CC(=O)N1CCN(c2nc(=O)n(-c3c(C)ccnc3C(C)C)c3nc(-c4c(O)cccc4F)c(F)cc23)[C@@H](C)C1 [sotorasib] | – | – | 0.52 | – | –
CC(C)Nc1cc(-c2c[nH]c(C(=O)N[C@H](CO)c3cccc(Cl)c3)c2)c(Cl)cn1 [Ulixertinib] (top concentration tested 99.921 nM) | – | – | – | 64.5% | 97.1%
CC[C@H](C)C(=O)O[C@H]1C[C@@H](C)C=C2C=C[C@H](C)[C@H](CC[C@@H]3C[C@@H](O)CC(=O)O3)[C@H]21 [Lovastatin] (top concentration tested 10000 nM) | – | – | – | 56.1% | 83.6%
CN(C)c1ccccc1CN1CCCN(Cc2ccccc2N(C)C)C1c1ccncc1 [GANT61] (top concentration tested 10000 nM) | – | – | – | 70.7% | 83.1%
CNC(=O)c1cc(Oc2ccc(NC(=O)Nc3ccc(Cl)c(C(F)(F)F)c3)c(F)c2)ccn1 [Regorafenib] (top concentration tested 999.95 nM) | – | – | – | 82.1% | 92.7%
Nc1nc(Nc2ccc3c(c2)CC[C@@H](N2CCCC2)CC3)nn1-c1cc2c(nn1)-c1ccccc1CCC2 [Bemcentinib] (top concentration tested 1000.1 nM) | – | – | – | 70.6% | 84.4%
Cc1cc(Nc2nc(N[C@@H](C)c3ncc(F)cn3)ncc2Cl)[nH]n1 [AZD-1480] (top concentration tested 10000 nM) | – | – | – | 67% | 87.9%
Nc1cccc2c1CN(C1CCC(=O)NC1=O)C2=O (stereo not given) [Lenalidomide] (top concentration tested 10000 nM) | – | – | – | 84.3% | 89.9%
O=C(Cc1ccccc1)Nc1nnc(CCSCCc2nnc(NC(=O)Cc3ccccc3)s2)s1 [BPTES] (top concentration tested 10000 nM) | – | – | – | 56.3% | 90.2%
Cn1nnc2c(C(N)=O)ncn2c1=O [Temozolomide] (top concentration tested 50000 nM) | – | – | – | 83.2% | 93.2%
CN(C)CCCC(=O)Nc1n[nH]c2nnc(-c3ccccc3)cc12 (top concentration tested 10000 nM) | – | – | – | 76.1% | 85.9%
CO[C@H]1C[C@@H]2CC[C@@H](C)[C@@](O)(O2)C(=O)C(=O)N2CCCC[C@H]2C(=O)O[C@H]([C@H](C)C[C@@H]2CC[C@@H](O)[C@H](OC)C2)CC(=O)[C@H](C)/C=C(\C)[C@@H](O)[C@@H](OC)C(=O)[C@H](C)C[C@H](C)/C=C/C=C/C=C/1C [Rapamycin] (top concentration tested 1000 nM) | – | – | – | 64.1% | 88.4%
N#CC[C@H](C1CCCC1)n1cc(-c2ncnc3[nH]ccc23)cn1 [Ruxolitinib] (top concentration tested 9999.9 nM) | – | – | – | 73.3% | 88.3%
CO[C@H]1C[C@@H]2CC[C@@H](C)[C@@](O)(O2)C(=O)C(=O)N2CCCC[C@H]2C(=O)O[C@H]([C@H](C)C[C@@H]2CC[C@@H](OCCO)[C@H](OC)C2)CC(=O)[C@H](C)/C=C(\C)[C@@H](O)[C@@H](OC)C(=O)[C@H](C)C[C@H](C)/C=C/C=C/C=C/1C [Everolimus] (top concentration tested 99.976 nM) | – | – | – | 76.4% | 95.4%
On1ncc2cc(CCc3nn[nH]n3)ccc21 (top concentration tested 10000 nM) | – | – | – | 73.1% | 88.1%
